Data set [1] has as its system E. coli. Put plainly: Toxicity of KI alone on bacteria. The format is cell-based, Escherichia coli K12 (ATCC 33780). Conditions: KI 0-50 mM, 10 minutes, dark control and 5 J/cm^2 red light. As for the experimental part:
(§1) Since there existed a possibility that KI itself could exert an antimicrobial effect, to eliminate or at least account for the direct influence of the KI on the bacteria and to ensure that the final efficiency of the PDI process is attributed to the potentiation of the MB with the KI, additional qualitative performance evaluation tests were performed. Specifically, the bacteria cells (10^8 CFU; 500 uL) were incubated with different concentrations of KI (0-50 mM) for 10 minutes in order to verify the toxicity of KI. An aliquot of 100 μl from each sample, was used as dark control, another (100 μl) was irradiated with 5 J/cm^2 dose of light (660 nm light) and then placed in a new 96 well plate. The aliquots were serially diluted as before. The results presented in FIGS. 2A, 2B (for S. aureus and E. coli) verified that KI itself was not responsible for the increased potency of the PDI treatment observed in the experiments with the MCPPS.

In data set [2] the test system is mammalian dermal skin fibroblasts. The data set can be described thus: Effect of KI in vitro on mammalian cells. In kind it is cell-based. The conditions noted are these: 3 hours, KI 0.001-10 mM.
Data set [3] can be described thus: Time-resolved singlet oxygen detection (1,270-nm phosphorescence). The format is physicochemical. The procedure: The interaction of iodide with singlet oxygen photogenerated by RB was examined directly by measuring the lifetime of singlet oxygen at different concentrations of KI and indirectly by monitoring the effect of increasing concentrations of iodide on oxygen uptake induced by irradiation of the RB solution with green light. Time-resolved singlet oxygen detection was carried out as follows. Phosphate-buffered (pH 7.2) D2O solutions of RB (optical densitv,=0.25 to 0.3 at 550 nm) in a 1-cm-optical-path quartz fluorescence cuvette (catalog number QA-1000; Hellma, Mullheim. Germany) were excited by 550-nm pulses generated by an integrated nanosecond neodymium-doped yttrium aluminum garnet laser system equipped with a narrow-band-width optical parametric oscillator (model NT242-1k-SH/SFG; Ekspla. Vilnius, Lithuania), which delivered pulses at a repetition rate of 1 kHz with energy of up to several hundred microjoules in the visible region. […] The near-infrared luminescence (1,270 nm) was measured perpendicularly to the excitation beam in a photon-counting mode using a thermoelectric cooled near-infrared photomultiplier tube (NIR PMT) module (model H10330-45; Hamamatsu, Japan) equipped with a 1,100-nm-cutoff filter and an additional dichroic narrow-band filter narrow-band pass (NBP), selectable from the spectral range of 1,150 to 1,355 nm (NDC Infrared Engineering Ltd., Maldon, Essex, UK). […]

For another data set, the system named is S. aureus. The data set can be described thus: Toxicity of KI alone on bacteria. Conditions: KI 0-50 mM, 10 minutes, dark control and 5 J/cm^2 red light. In kind it is cell-based, Staphylococcus aureus (NCTC 8325). The procedure: as §1
The next data set addresses C. albicans. The data set can be described thus: RB-mediated aPDI in vitro with/without KI. In kind it is cell-based, Candida albicans CEC 749. As for the experimental part: (§2) A source of green light was configured from a white lamp and a band-pass filter probe (wavelength, 540±15 nm Lumacare, Newport Beach, Calif., USA) to deliver light over a spot of 4 cm in diameter to simultaneously irradiate four wells of a 24-well plate in vitro or the whole abrasion in vive at an irradiance of 100 mW/cm^2. Light power was measured with a power meter (model DMM 199 with a 201 standard head; Coherent, Santa Clara, Calif., USA).
(§3) The following microbial strains were used: the Gram-positive bacterium methicillin-resistant Staphylococcus aureus (MRSA) USA 300, Gram-negative bacteria Escherichia coli K-12 (ATCC 33780) and Pseurdomonas aeruginosa ATCC 19660 (Xen 5P), and strain CEC 749 of the luciferase-expressing fungal yeast Candida albicans. A colony of bacteria or fungal yeast was suspended in 20 ml of brain heart infusion (BHI) broth for bacteria or yeast extract-peptone-dextrose (YPD) for C. albicans and grown overnight in a shaker incubator (New Brunswick Scientific, Edison, N.J.) at 120 rpm under aerobic conditions at 37° C. for bacteria and at 30° C. for C. albicans. For bacteria, an aliquot of 1 ml from an overnight bacterial suspension was refreshed in fresh BHI for 2 to 3 h at 37° C. to mid-log phase. […] The C. albicans cell number was assessed with a hemocytometer and was generally between 10^7 and 10^8 cells/ml. […]

Data set [4] deals with P. aeruginosa. Put plainly: In vivo PDT of skin abrasions infected with bioluminescent P. aeruginosa. On the set-up: species or system BALB/c mice. Conditions: RB 500 μM, up to 20 J/cm^2. The procedure:
The Pseudomonas aerugenosa strain used in this work was ATCC 19660 (Xen 5P). Bacteria were routinely grown in BHI with aeration in an orbital incubator at 100 rpm and 37° C. overnight to stationary phase. An aliquot of this suspension was then refreshed in fresh BHI to mid-log phase. Cell numbers were estimated by measuring the OD at 600 nm (OD of 0.6=10^8 CFU cells/ml). The bacterial suspension was centrifuged, washed, and resuspended in PBS, and the suspension was diluted 10-fold for the in vivo experiments.
An IVIS Lumina series III in vivo imaging system (PerkinElmer, Inc., Waltham, Mass., USA) was applied for bioluminescence imaging on a daily basis until the disappearance of the infection by bioluminescence imaging. Using the photon counting mode, an image can be obtained by detecting and integrating individual photons emitted by the bacterial cells. Prior to PDT and imaging, mice were anesthetized by intraperitoneal (i.p.) injection of a ketamine-xylazine cocktail. […] The signal from the bioluminescence image was quantified as the region of interest (ROI), with absolute calibrated data being given as the number of photons/(s cm^2 sr), using the IVIS software. […]
Mice were divided into four groups of 5 mice each. […] Then, the wounds were irradiated with green light at a fluence of up to 20 J/cm^2, and luminescence imaging was performed after irradiation.

Data set [5] deals with E. coli. The data set can be described thus: RB-mediated aPDI in vitro with/without KI. The format is cell-based, Escherichia coli K-12 (ATCC 33780). Conditions: for killing: 10 μM RB. The procedure: as §2
(§4) The following microbial strains were used: the Gram-positive bacterium methicillin-resistant Staphylococcus aureus (MRSA) USA 300, Gram-negative bacteria Escherichia coli K-12 (ATCC 33780) and Pseurdomonas aeruginosa ATCC 19660 (Xen 5P), and strain CEC 749 of the luciferase-expressing fungal yeast Candida albicans. A colony of bacteria or fungal yeast was suspended in 20 ml of brain heart infusion (BHI) broth for bacteria or yeast extract-peptone-dextrose (YPD) for C. albicans and grown overnight in a shaker incubator (New Brunswick Scientific, Edison, N.J.) at 120 rpm under aerobic conditions at 37° C. for bacteria and at 30° C. for C. albicans. For bacteria, an aliquot of 1 ml from an overnight bacterial suspension was refreshed in fresh BHI for 2 to 3 h at 37° C. to mid-log phase. The cell concentration was estimated by measuring the optical density (OD) at 600 nm (OD of 0.6=10^8 cells/ml). The C. albicans cell number was assessed with a hemocytometer and was generally between 10^7 and 10^8 cells/ml.
(§5) Two types of in vitro aPDI experiments were carried out. The first experiments used cells with fixed RB and KI concentrations while varying the dose of irradiating light. The second type of experiments used cells with a fixed RB concentration and a fixed light dose while varying the KI concentration. Here, comparison was performed based on the order of addition of the components and the effect of centrifugation. […]

Data set [6] addresses P. aeruginosa. The data set can be described thus: RB-mediated aPDI in vitro with/without KI. The format is cell-based, Pseudomonas aeruginosa ATCC 19660 (Xen 5P). The conditions noted are these: no KI. As for the experimental part:
as §2, §3

For another data set, the target named is MRSA. The data set can be described thus: RB-mediated aPDI in vitro with/without KI. In kind it is cell-based, methicillin-resistant Staphylococcus aureus (MRSA) USA 300. As for the experimental part: as §2, §4, §5

The structures appear in SMILES notation.

For the compound `[I-].[K+]` [KI, potassium iodide], the “bacteria killing by KI alone” value with E. coli [1] and in the data set on S. aureus was “no bacteria killing was found” each time. In addition, the “killing of mammalian cells by KI” value in [2] is listed as “did not kill mammalian cells”. Besides, the “shortening of observable lifetime of singlet oxygen-dependent luminescence” value in [3] (35 mM KI, RB in D2O) is “more than 3 fold”. Moreover, the “bimolecular rate constant of quenching (kq) of singlet oxygen” value in [3] (RB-photogenerated singlet oxygen, KI 0 to 50 mM) is 1.1*10^6 l/(m*s).
`O=C1OC2(c3cc(I)c(O)c(I)c3Oc3c2cc(I)c(O)c3I)c2c(Cl)c(Cl)c(Cl)c(Cl)c21` [RB, Rose bengal]: the killing result was “no killing” on C. albicans (10 μM RB plus light, no KI, either fluence (10, 20 J/cm^2)); 2 logs in the data set with E. coli [5] (no KI, 20 J/cm^2 540 nm); “less than 1 logs” with E. coli [5] (with or without 100 mM KI, 10 J/cm^2 540 nm); 1 to 2 logs at MRSA (100 nM RB plus light, no KI). Also, the “killing, cells centrifuged after incubation with RB” value in the data set on C. albicans (10 μM RB, 10 J/cm^2, KI up to 100 mM) is “some minor killing after centrifugation”. Further, the “reduction in the bioluminescence signal with 540-nm light” value with P. aeruginosa [4] is “only a slight reduction”. Also, the “killing by RB aPDI in the absence of KI” value in the data set on E. coli [5] (no KI) and on P. aeruginosa [6] was “almost no killing” throughout. Besides, the “killing after a spin (centrifugation)” value at MRSA (100 nM RB, 10 J/cm^2) is reported as “centrifugation abolished the killing”. Moreover, the “RB concentration that produced eradication” value with MRSA (RB as antimicrobial PS plus light) is on record as 200 nM.

The record behind these values is patent US11135445B2, “Antimicrobial photodynamic inactivation procedure and system” (The General Hospital Corporation, priority 2014, dated 2021).
